Laboratory results from ChEMBL document CHEMBL1275601, “Striking species difference in the contribution of concentrative nucleoside transporter 2 to nucleoside uptake between mouse and rat hepatocytes” (Antimicrob Agents Chemother, 2010).
The source made the active and inactive calls. No cut-off for these calls is given here.

Legend:
Format in all cases: cell-based
[1] = molecular target: T1, Sodium/nucleoside cotransporter 1 (Rattus norvegicus) (UniProt Q62674); test: Transport through CNT1 in rat hepatocytes by oil filtration assay; details: Hepatocyte
T1 sequence (whole entry): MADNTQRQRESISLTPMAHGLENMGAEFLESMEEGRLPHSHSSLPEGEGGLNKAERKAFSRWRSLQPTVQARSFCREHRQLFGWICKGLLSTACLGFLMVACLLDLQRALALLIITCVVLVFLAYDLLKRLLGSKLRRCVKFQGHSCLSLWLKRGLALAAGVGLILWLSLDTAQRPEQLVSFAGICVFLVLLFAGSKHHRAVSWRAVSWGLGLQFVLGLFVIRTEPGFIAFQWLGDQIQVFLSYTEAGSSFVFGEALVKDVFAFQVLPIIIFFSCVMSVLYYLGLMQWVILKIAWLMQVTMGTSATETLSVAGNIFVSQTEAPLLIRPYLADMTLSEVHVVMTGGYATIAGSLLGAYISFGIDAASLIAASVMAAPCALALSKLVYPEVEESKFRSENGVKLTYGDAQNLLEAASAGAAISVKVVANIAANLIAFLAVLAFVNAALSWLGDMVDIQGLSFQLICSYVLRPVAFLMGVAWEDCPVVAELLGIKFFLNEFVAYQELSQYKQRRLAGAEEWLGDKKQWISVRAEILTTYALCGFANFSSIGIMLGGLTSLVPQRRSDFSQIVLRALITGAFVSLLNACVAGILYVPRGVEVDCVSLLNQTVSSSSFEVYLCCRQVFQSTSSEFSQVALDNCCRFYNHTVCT

[2] = test system: Hepatocyte; test: Transport through CNT3 in mouse hepatocytes by oil filtration assay in presence of sodium ions in Kreb-henseleit buffer
[3] = molecular target: T2, Sodium/nucleoside cotransporter 2 (Mus musculus) (UniProt O88627); test: Transport through CNT2 in mouse hepatocytes by oil filtration assay pre-incubated with 20 ng/mL rotenone for 15 mins and 2 mM 2-deoxyglucose for 10 mins at 37 degC in presence of sodium ions in Kreb-henseleit buffer containing 100 nM NBMPR; details: Hepatocyte
T2 sequence (whole entry): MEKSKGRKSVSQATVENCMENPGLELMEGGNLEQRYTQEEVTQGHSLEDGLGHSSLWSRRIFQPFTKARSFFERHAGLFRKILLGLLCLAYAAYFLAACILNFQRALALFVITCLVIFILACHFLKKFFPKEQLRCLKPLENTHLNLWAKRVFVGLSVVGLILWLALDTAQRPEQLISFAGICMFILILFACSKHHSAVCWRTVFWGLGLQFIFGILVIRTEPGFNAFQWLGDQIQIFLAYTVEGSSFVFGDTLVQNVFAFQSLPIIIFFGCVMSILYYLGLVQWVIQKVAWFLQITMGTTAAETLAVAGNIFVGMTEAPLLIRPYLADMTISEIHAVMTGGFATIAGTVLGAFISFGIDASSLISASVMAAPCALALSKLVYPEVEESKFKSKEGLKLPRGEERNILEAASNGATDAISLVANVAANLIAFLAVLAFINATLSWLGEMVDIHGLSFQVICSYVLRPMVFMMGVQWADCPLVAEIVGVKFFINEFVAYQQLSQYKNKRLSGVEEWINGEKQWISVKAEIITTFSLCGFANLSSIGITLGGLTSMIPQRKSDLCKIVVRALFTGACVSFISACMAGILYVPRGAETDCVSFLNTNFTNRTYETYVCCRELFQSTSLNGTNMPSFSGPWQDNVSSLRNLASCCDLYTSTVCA

[4] = molecular target: T2, Sodium/nucleoside cotransporter 2 (Mus musculus); test: Transport through CNT2 in mouse hepatocytes by oil filtration assay pre-incubated with 20 ng/mL rotenone for 15 mins and 2 mM 2-deoxyglucose for 10 mins at 37 degC in Kreb-henseleit buffer; details: Hepatocyte
[5] = molecular target: T3, Equilibrative nucleoside transporter 1 (Rattus norvegicus) (UniProt O54698); test: Transport through ENT1 in rat hepatocytes by oil filtration assay in presence 100 nM of transporter inhibitor NBMRP; details: Hepatocyte
T3 sequence (whole entry): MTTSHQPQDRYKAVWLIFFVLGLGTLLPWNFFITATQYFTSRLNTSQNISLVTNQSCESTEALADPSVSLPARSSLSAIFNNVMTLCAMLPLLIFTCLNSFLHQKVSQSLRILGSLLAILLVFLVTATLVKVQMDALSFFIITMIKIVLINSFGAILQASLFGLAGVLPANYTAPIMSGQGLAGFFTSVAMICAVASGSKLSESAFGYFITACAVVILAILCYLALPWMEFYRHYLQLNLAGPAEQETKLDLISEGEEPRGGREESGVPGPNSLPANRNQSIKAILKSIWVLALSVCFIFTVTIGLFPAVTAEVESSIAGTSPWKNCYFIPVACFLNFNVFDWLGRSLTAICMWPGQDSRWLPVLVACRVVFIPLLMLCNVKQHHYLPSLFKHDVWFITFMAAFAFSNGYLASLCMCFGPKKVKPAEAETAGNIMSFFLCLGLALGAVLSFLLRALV

[6] = molecular target: T4, Sodium/nucleoside cotransporter 2 (Rattus norvegicus) (UniProt Q62773); test: Transport through CNT2 in rat hepatocytes by oil filtration assay in presence of sodium ions in Kreb-henseleit buffer containing 100 uM NBMPR and 1 mM uridine; details: Hepatocyte
T4 sequence (whole entry): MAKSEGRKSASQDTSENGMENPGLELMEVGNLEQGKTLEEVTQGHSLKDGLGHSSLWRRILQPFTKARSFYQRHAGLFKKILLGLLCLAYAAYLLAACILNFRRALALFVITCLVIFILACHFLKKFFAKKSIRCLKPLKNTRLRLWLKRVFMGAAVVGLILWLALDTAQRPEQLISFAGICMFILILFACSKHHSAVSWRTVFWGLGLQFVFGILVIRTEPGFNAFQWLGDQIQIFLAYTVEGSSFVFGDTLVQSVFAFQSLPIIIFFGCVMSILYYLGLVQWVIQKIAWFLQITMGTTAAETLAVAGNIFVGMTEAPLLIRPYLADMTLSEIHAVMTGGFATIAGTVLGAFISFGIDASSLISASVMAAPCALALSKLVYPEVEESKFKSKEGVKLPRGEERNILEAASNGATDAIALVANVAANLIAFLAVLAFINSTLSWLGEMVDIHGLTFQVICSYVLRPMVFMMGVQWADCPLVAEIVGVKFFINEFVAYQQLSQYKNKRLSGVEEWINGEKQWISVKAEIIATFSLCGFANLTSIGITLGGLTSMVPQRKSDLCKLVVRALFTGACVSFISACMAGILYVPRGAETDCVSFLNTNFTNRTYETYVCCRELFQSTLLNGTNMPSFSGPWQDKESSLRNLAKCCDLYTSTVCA

[7] = molecular target: T4, Sodium/nucleoside cotransporter 2 (Rattus norvegicus); test: Transport through CNT2 in rat hepatocytes by oil filtration assay pre-incubated with 20 ng/mL rotenone for 15 mins and 2 mM 2-deoxyglucose for 10 mins at 37 degC in presence of sodium ions in Kreb-henseleit buffer containing 100 nM NBMPR; details: Hepatocyte
[8] = molecular target: T4, Sodium/nucleoside cotransporter 2 (Rattus norvegicus); test: Transport through CNT2 in rat hepatocytes by oil filtration assay pre-incubated with 20 ng/mL rotenone for 15 mins and 2 mM 2-deoxyglucose for 10 mins at 37 degC in Kreb-henseleit buffer; details: Hepatocyte
[9] = molecular target: T2, Sodium/nucleoside cotransporter 2 (Mus musculus); test: Transport through CNT2 in mouse hepatocytes by oil filtration assay in presence of sodium ions in Kreb-henseleit buffer; details: Hepatocyte

SMILES | Activity [1] | Activity [2] | Activity [3] | Activity [4] | Activity [5] | Activity [6] | Activity [7] | Activity [8] | Activity [9]
NC(=O)c1ncn([C@@H]2O[C@H](CO)[C@@H](O)[C@H]2O)n1 | Active | inactive | Active | Active | inactive | inactive | Active | Active | inactive
Nc1ncnc2c1ncn2[C@@H]1O[C@H](CO)[C@@H](O)[C@H]1O | inactive | inactive |  |  | inactive | inactive |  |  | inactive
